# Test results reported in paper PMC12520456, “Regulating Enzyme Activity via Microaggregates Mediated by Phase Separation” (Advanced Science, 2025).
# Non-standard residues stand in square brackets, D forms with d. Residues, ends and D or L forms follow the SMILES beside them.
# Assays:
# [1] = Animal fluorescence imaging, tissue distribution and urine; format: in vivo, rat
# Procedure: To assess the fate of DPMD in vivo, rats were administered DPMD intraperitoneally and monitored using in vivo fluorescence imaging.
# Figure S14. (A) The cell viability test of NIH-3T3 or HUVEC cells co-cultured with different concentrations DPMD.
# (B) The apoptosis evaluation of NIH-3T3 or HUVEC co-cultured with DPMD, DPMD & Trypsin, DPMD & Chymotrypsin by flow cytometry. (C) Tissue distribution and quantification of DPMD in […] organs measured by IVIS (n=3/point). The fluorescence signal from the organs after DPMD intraperitoneal injection (1 ml, 0.5%) at 1h, 2-day, 3-day, 4-day, 5-day, 6-day, 7-day. (D) The evaluation of distribution DMPD in urine.
# (1 picture or pasted object on this page, not shown here) […]
# was performed using an Annexin V-Alexa Fluor 647/PI kit (Solarbio) according to the manufacturer’ s protocol. Briefly, adherent cells were detached with 0.25% EDTA-free trypsin, combined with floating cells from the supernatant. The pellet was washed twice with cold PBS and resuspended in 100 μL of 1× binding buffer. […] Samples were analyzed within 1h on a Sony MA900 flow cytometer.
# 3.12 Animal fluorescence imaging
# Rats were intraperitoneally injected with 1 mL of rhodamine-labeled 0.5% (w/v) DPMD. […] The fluorescence emission intensity of the organs was measured using IVIS Spectrum system (PerkinElmer). […]
# [2] = In vivo safety after intraperitoneal injection; set-up: species or system rat
# Text: For in vivo safety, rats receiving an intraperitoneal injection of DPMD were monitored for systemic toxicity and immune response. […] The heart and spleen likewise appeared normal, with no myocardial inflammation or splenic white pulp enlargement (Figure 5G,H). […] We acknowledge that longer‐term studies will be needed, but these initial results support the biosafety of DPMD as a therapeutic agent.
# Figure 5 The favorable biosafety and biocompatibility of DPMD. A) The schematic diagram of therapeutic safety benefited from the DPMD. B&C) The blood corpuscle counting and immunotoxicity‐related blood biochemical indexes of rats treated with the DPMD or PBS using intraperitoneal administration. D) Hepatotoxicity measured by pathological section of liver, ALT (glutamic‐pyruvic transaminase), AST (glutamic‐oxalacetic transaminase), total bilirubin (TBIL) and inflammatory cytokines (IL‐6, TNF‐α, MCP‐1and NF‐κB) of liver. E) Nephrotoxicity test, including pathological section of kidney, CR (creatinine), BUN (Blood Urea Nitrogen), albumin (ALB) and inflammatory cytokines (IL‐6, TNF‐α, MCP‐1and NF‐κB) of kidney. […] G) Cardiotoxicity reflected by pathological section and inflammatory cytokines (IL‐6, TNF‐α, MCP‐1and NF‐κB) infiltrating in heart. H) The H&E staining of spleen sections, and IL‐6, TNF‐α, MCP‐1and NF‐κB cytokines were involved in safety detection of DPMD or PBS in spleen. The data from each group were presented as the mean ± SD. Scale bar: 100 µm. Statistical analysis in B‐G was performed using unpaired t‐test.
# [3] = intraperitoneal injection, 7 days post-treatment
structure (smiles),measurement,setting,value
"CC[C@@H](C)[C@@H](NC(=O)[C@@H](CCC(N)=O)NC(=O)[C@H](NC(=O)[C@@H](Cc1ccc(O)cc1)NC(=O)CNC(=O)[C@@H](CC(C)C)NC(=O)[C@H](NC(=O)[C@@H](CO)NC(=O)CNC(=O)[C@@H](C)NC(=O)[C@@H](CC(=O)O)NC(=O)[C@@H](C)NC(=O)[C@@H](CCCNC(=N)N)NC(=O)[C@@H](C)NC(=O)[C@@H](CC(=O)O)NC(=O)[C@@H](C)NC(=O)[C@@H](CCCNC(=N)N)NC(=O)[C@@H](C)NC(=O)[C@@H](CC(=O)O)NC(=O)[C@@H](C)NC(=O)[C@@H](CCCNC(=N)N)NC(=O)[C@@H](C)NC(=O)[C@@H](CC(=O)O)NC(=O)[C@@H](C)NC(=O)[C@H](N)CCCNC(=N)N)C(C)C)[C@H](C)CC)C(=O)N[C@H](CCCNC(=N)N)C(=O)O [DPMD, Ac‐(D‐RADA)4‐CONH2] (H-[dR][dA][dD][dA][dR][dA][dD][dA][dR][dA][dD][dA][dR][dA][dD][dA]G[dS][dV][dL]G[dY][dI][dQ][dI][dR]-OH; N-terminus and C-terminus assumed)","fluorescence intensity in organs (liver, kidneys, spleen)","[1]; 1 mL rhodamine-labeled 0.5% (w/v) DPMD intraperitoneally, IVIS, day 6 post-injection, n=3/point",barely detectable
same,fluorescence in urine samples,"[1]; labeled DPMD intraperitoneally, Figure S14D",fluorescence appeared in urine samples
same,"blood cell counts (red and white cells, platelets)",[2]; [3],remained within normal limits
same,"liver function tests (ALT, AST, total bilirubin) and kidney function markers (creatinine, BUN, albumin)",[2]; [3],no signs of organ damage or dysfunction
same,"serum pro-inflammatory cytokine levels (IL-6, TNF-α, MCP-1, NF-κB)",[2]; [3],indistinguishable from saline‐treated controls
same,histopathological examination of major organs,"[2]; liver, kidney, lung, heart, spleen, H&E",no microscopic evidence of toxicity
